Test results taken from patent US7354928B2, “Small molecule inhibitors targeted at Bcl-2” (The Regents of the University of Michigan, priority 2001, dated 2008).
Like-named read-outs stand apart in the source and are kept apart here.

Key:
[1] = Solubility in DMSO or chloroform; type: physicochemical
Method: Compound 5. FABMS 613.2 (M+H)^+. Insoluble in either DMSO or chloroform.
Subsequently ^1H NMR spectra for the five active compounds were performed. The ^1H NMR spectrum for compound 5 is not determined, because it is insoluble in either DMSO or chloroform. The ^1H NMR spectra for compounds 6, 7, 8 and 11 are consistent with their chemical structures.

GST-fused Bcl-2 protein = target: T1, GST-fused Bcl-2 protein (Homo sapiens, UniProt P10415); experiment: Bcl-2 fluorescence polarization (FP) competitive binding assay with Flu-Bak-BH3 peptide; details: read-out: IC50, inhibition of Bak BH3 peptide binding to Bcl-2, 290 nM tracer, 270 nM Bcl-2 protein
T1 construct: purchased Santa Cruz Biotechnology (Santa Cruz, Calif.)

HL-60 cells = experiment: Cell viability, trypan blue exclusion, HL-60; type: cell-based; details: Homo sapiens; HL-60, trypan blue exclusion, 24 hours; read-out: IC50, inhibition of cell viability
Method: FIG. 3 illustrated the effects of Compound 6 on cell viability. Cells are plated in 24-well plates, incubated with the compound at appropriate concentrations for […]. Cell viability is determined by trypan blue exclusion with hemocytometer. Percent of viable cells, as compared with untreated cells, is plotted against drug concentration.
First, in some embodiments, the trypan blue exclusion method was used to determine the effect of an inhibitor on cell viability in which cells were treated with the inhibitor for 24 hours. Second, in some other embodiments, the MTT assay was used to determine the activity of an inhibitor on cell proliferation where cells were treated for four days. All the 7 active compounds were tested using the HL-60 cell line that expresses the highest level of Bcl-2 protein among all the cancer cell lines examined.
Cells and Reagents. Human breast cell lines (T47D, MDA-231, MDA-453), and human Leukemia cells HL-60 were obtained from the American Type Culture Collection (ATCC). All tumor cell lines were grown and maintained in RPMI 1640 medium containing 10% FBS, except MDA-MB-231, which used Dulbecco's modified Eagle's medium as basal medium. Cultures were maintained in a humidified incubator at 37° C. and 5% CO2.
Cell viability was determined by the trypan blue assay. […] Trypan blue dye was added 24 hours later and the percentage of viable cells were determined.

Bcl-2/Bcl-XL = details: reported by Tzung et al.; read-out: IC50, inhibitor of Bcl-2/Bcl-XL; cited from earlier work

T1 sequence (P10415 1-205 limits assumed): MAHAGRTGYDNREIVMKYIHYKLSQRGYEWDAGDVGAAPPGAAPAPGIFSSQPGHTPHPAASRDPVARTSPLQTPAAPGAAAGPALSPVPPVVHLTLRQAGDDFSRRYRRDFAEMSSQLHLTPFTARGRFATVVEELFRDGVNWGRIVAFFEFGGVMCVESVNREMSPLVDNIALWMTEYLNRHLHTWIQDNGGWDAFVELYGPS

With `O=C1c2cc(Br)ccc2-c2ccc3c4ccc5c6c(ccc(c7ccc1c2c73)c64)C(=O)c1cc(Br)ccc1-5` [Compound 5] the solubility [1] was “Insoluble” and the solubility ([1]; listed as compound 5) was “insoluble”.
Work on `COc1ccc2c(c1)CCc1cc(OC)ccc1[N+]([O-])=[N+]2[O-]` [Compound 6a, 2,9-Dimethoxy-11,12-dihydrodibenzo [c,g] [1,2] diazocine-5,6-dioxide] yielded a melting point of 136 to 138 °C.
With `Nc1nc(-c2ccccc2)nc2c1[n+]([O-])c1ccccc1[n+]2[O-]` [Compound 7] the IC50 (GST-fused Bcl-2 protein) was 1600 nM.
In the case of `Brc1cccc[n+]1-c1ccc2cc(-[n+]3ccccc3Br)ccc2c1` [Compound 10], the IC50 (HL-60 cells) is reported as no less than 50000 nM.
In the case of antimycin A, the IC50 (Bcl-2/Bcl-XL) is given as 2000 nM.
